Literature values in patent US20050215571A1, “Therapeutic combination for cognititon enhancement and psychotic disorders” (Pfizer Inc., priority 2003, published 2005).

Assays:
[1] = not given; remark: listed apart in the source

For `O=C1Cc2cc(CCN3CCN(c4nsc5ccccc45)CC3)c(Cl)cc2N1` [Ziprasidone, 5-[2-[4-(1,2-benzisothiazol-3-yl)piperazin-1-yl]ethyl]-6-chloroindolin-2-one], the half-life (in vivo) is given as 6 to 7 h, the Oral bioavailability (oral, taken with food) is given as “approximately 60%” and the protein binding [1] is given as “extensive”.
